Here are results for 5 molecules from patent US11440923B2, “Substituted macrocyclic indole derivatives” (Bayer Aktiengesellschaft, priority 2017, dated 2022).

Each structure is given as a SMILES string. Counter-ions that a name gives are not always drawn. Like-named read-outs stand apart in the source and are kept apart here.

Test [1] deals with SNU-389 cells. Kind of test: Antiproliferation assay SNU-389 (Assay 7). Particulars: 72 h, CellTiter-Glo; read-out: Antiproli SNU-389 IC50. The test is classed as cell-based. The method, boiled down: (§1)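 Cells are plated alongside a time-zero reference plate and held overnight at 37 °C. Treated plates are incubated 72 h, then ATP-based luminescence (CellTiter-Glo) is read. IC50 uses day 0 as baseline and DMSO as untreated control.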

In test [2] the test system is MV-4-11 cells. Kind of test: Antiproliferation assay MV-4-11 (Assay 7). It counts as cell-based. In a few lines:
as §1

The target in test [3] is MCL1 protein / biotinylated BIM BH3 peptide in RKO cells (Homo sapiens (Human), UniProt Q07820). Put plainly: PIxEL: protein-protein interaction in permeabilized cells by ELISA (Assay 5). It counts as cell-based. Particulars: PIxEL IC50 (median). In a few lines: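 Digitonin (0.002%)-permeabilized RKO cells in MEB buffer pH 7.5 were treated with compound (3-fold series, top 30 μM) plus 0.2 μM biotin-BIM BH3 peptide for 1 h at room temperature. Lysates were captured on anti-MCL1 ELISA plates and bound peptide read by streptavidin-HRP luminescence. IC50 came from signal normalized to no-compound and no-cell controls.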

The target of test [4] is MCL-1 (Homo sapiens (Human), UniProt Q07820, K194A/K197A/R201A). Kind of test: Protein-compound interaction assay (SPR assay, Assay 9). Particulars: for Kd: KD (geometric mean); for koff: read-out: koff (geometric mean), SPR, 25° C. It counts as binding. The source says: Assay 9 Protein-Compound Interaction Assay (SPR Assay)
The ability of the compounds described in this invention to bind to MCL-1 may be determined using surface plasmon resonance (SPR). This allows for the quantification of binding in terms of the equilibrium dissociation constant (KD [M]), as well as association and dissociation rate constants (kon [1/Ms] and koff [1/s], respectively). The measurements may be performed using Biacore® T200 or Biacore® S200 instruments (GE Healthcare).
Briefly, carboxymethylated dextran biosensor chips (Series S Sensor Chip CMS, GE Healthcare) were activated with 1-ethyl-3-(3-dimethylaminopropyl)-carbodiimide hydrochloride (EDC) and N-hydroxysuccinimide (NHS) according to the supplier's instructions. MBP-MCL-1 was diluted in 1×PBS-P+ (GE Healthcare) and injected on the activated chip surface. Subsequently, a solution of 1 M ethanolamine-HCl (GE Healthcare) was injected to block unreacted groups, resulting in approximately 400-2500 response units (RU) of immobilized protein. A reference surface was generated by treatment with NHS-EDC and ethanolamine-HCl. […] Compounds were injected for 60 s followed by a dissociation time of up to 1000 s.
The double-referenced sensorgrams were fit to a simple reversible Langmuir 1:1 reaction mechanism as implemented in the Biacore® T200 and S200 evaluation software (T200 evaluation software version 2.0 and S200 evaluation software version 1.0, GE Healthcare).
(In SPR one partner is held on a chip, and binding of the other changes the refractive index at the surface.)

Test [5] concerns DMS-114 cells. Kind of test: Antiproliferation assay DMS-114 (Assay 7). The conditions noted are these: Homo sapiens; DMS-114 cells, 72 h, CellTiter-Glo; read-out: Antiproli DM-S114 IC50 median. It counts as cell-based. The method, boiled down:
as §1

Setting [6] is: read-out: Antiproli MV-4-11 IC50 median; 72 h, CellTiter-Glo.
[7] abbreviates: 72 h, CellTiter-Glo; read-out: Antiproli MV-4-11 IC50 median.

Chain of MCL-1 (Q07820 whole entry K194A/K197A/R201A, looked up): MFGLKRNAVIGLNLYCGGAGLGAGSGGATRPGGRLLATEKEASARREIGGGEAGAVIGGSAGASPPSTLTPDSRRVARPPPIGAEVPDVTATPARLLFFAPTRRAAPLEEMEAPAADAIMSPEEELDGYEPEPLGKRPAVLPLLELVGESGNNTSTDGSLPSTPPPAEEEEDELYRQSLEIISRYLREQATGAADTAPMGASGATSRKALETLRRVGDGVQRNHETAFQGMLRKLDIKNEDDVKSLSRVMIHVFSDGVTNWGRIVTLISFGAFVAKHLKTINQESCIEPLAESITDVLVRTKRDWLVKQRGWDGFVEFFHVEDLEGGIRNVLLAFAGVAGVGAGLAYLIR
Chain of MCL1 protein / biotinylated BIM BH3 peptide in RKO cells (Q07820 whole entry): as the sequence (Q07820 whole entry K194A/K197A/R201A, looked up) above, with A194K, A197K, A201R counted along it

What is called IC50 is the concentration at which inhibition is half-maximal. For `Cc1c2c(nn1C)C(CCN1CCOCC1)OCCCCn1c(C(=O)O)c(CCCOc3cccc4cc(F)ccc34)c3ccc(Cl)c-2c31` (racemic) [Example 16, (rac)-4-chloro-7-{3-[(6-fluoronaphthalen-1-yl)oxy]propyl}-2,3-dimethyl-15-[2-(morpholin-4-yl)ethyl]-2,10,11,12,13,15-hexahydropyrazolo[4′,3′:9,10][1,6]oxazacycloundecino[8,7,6-hi]indole-8-carboxylic Acid], the IC50 in test [1] worked out at 118 nM; in test [2] (Homo sapiens, MV4-11, 72 h, CellTiter-Glo, read-out: Antiproli MV-4-11 IC50 median) it was 34.6 nM.

For orientation: Kd means the constant that tells how readily two partners part at equilibrium. A high value points to a looser complex. What is called koff is a measure of how fast the partners let go of each other. `CCc1c2c(nn1C)C(CCN1CCOCC1)OCCCCn1c(C(=O)O)c(CCCOc3cccc4ccccc34)c3ccc(F)c-2c31` (single isomer, unassigned; enantiomer 1) [Example 11, 3-ethyl-4-fluoro-2-methyl-15-[2-(morpholin-4-yl)ethyl]-7-{3-[(naphthalen-1-yl)oxy]propyl}-2,10,11,12,13,15-hexahydropyrazolo[4′,3′:9,10][1,6]oxazacycloundecino[8,7,6-hi]indole-8-carboxylic Acid—N-ethylethanamine Salt (Enantiomer 1)]: the IC50 in test [2] (setting [6]) came out at 144 nM. This molecule also had an IC50 in test [3] (uM) of over 30 µM. In addition, in test [4] (SPR, 25° C.), the affinity, expressed as Kd, was 0.61 nM and the “kon (geometric mean)” value is reported as 6.2 E6 1/M 1/s. Besides, in test [4], the koff is 0.0038 s⁻¹.

One may read the kon as the rate constant with which the complex forms. Take `Cc1c2c(nn1C)C(CCN1CCOCC1)OCCCCn1c(C(=O)O)c(CCCOc3cccc4ccccc34)c3ccc(Cl)c-2c31` (single isomer, unassigned; enantiomer 1) [Example 14, 4-chloro-2,3-dimethyl-15-[2-(morpholin-4-yl)ethyl]-7-{3-[(naphthalen-1-yl)oxy]propyl}-2,10,11,12,13,15-hexahydropyrazolo[4′,3′:9,10][1,6]oxazacycloundecino[8,7,6-hi]indole-8-carboxylic Acid (Enantiomer 1)]: the IC50 in test [1] turned out to be 183 nM; in test [5] it was 150 nM; in test [2] (setting [7]), 37.6 nM; in test [3], 0.0834 µM. Further, the Kd in test [4] (SPR, 25° C.) was determined as 1.3 nM. Further, in test [4], the koff turned out to be 0.031 s⁻¹. Moreover, the kon in test [4] (read-out: kon (geometric mean), SPR, 25° C.) stood at 2.3e+07 M⁻¹ s⁻¹.

For `CCc1c2c(nn1C)C(CCN1CCOCC1)OCCCCn1c(C(=O)O)c(CCCOc3cccc4ccccc34)c3ccc(F)c-2c31` (single isomer, unassigned; enantiomer 2) [Example 12, 3-ethyl-4-fluoro-2-methyl-15-[2-(morpholin-4-yl)ethyl]-7-{3-[(naphthalen-1-yl)oxy]propyl}-2,10,11,12,13,15-hexahydropyrazolo[4′,3′:9,10][1,6]oxazacycloundecino[8,7,6-hi]indole-8-carboxylic Acid—N-ethylethanamine Salt (Enantiomer 2)], the IC50 in test [2] (setting [6]) amounted to 14400 nM. Moreover, the IC50 in test [3] was 19.4 µM. Moreover, in test [4] (SPR, 25° C.), the affinity, expressed as Kd, was 22 nM; the “koff (geometric mean)” value is reported as 3.4 E−3 1/s; the “kon (geometric mean)” value was 1.5 E5 1/M 1/s.

For the molecule `Cc1c2c(nn1C)C(CCN1CCOCC1)OCCCCn1c(C(=O)O)c(CCCOc3cccc4ccccc34)c3ccc(Cl)c-2c31` (single isomer, unassigned; enantiomer 2) [Example 15, 4-chloro-2,3-dimethyl-15-[2-(morpholin-4-yl)ethyl]-7-{3-[(naphthalen-1-yl)oxy]propyl}-2,10,11,12,13,15-hexahydropyrazolo[4′,3′:9,10][1,6]oxazacycloundecino[8,7,6-hi]indole-8-carboxylic Acid (Enantiomer 2)], the IC50 in test [2] (setting [7]) stood at 7840 nM; in test [3], 12.5 µM.
